In brackets after ≈: the same amount, converted by molar mass. Where two headings read alike, the source gives them in different places.
How the values were obtained:
[1] = system: murine leukaemia P388; assay: in vitro cytotoxicity versus murine leukaemia P388; type: cell-based; conditions: Mus musculus
Description: (§1) Coupling of the peptide A-B to amino acid moiety of C (5) was carried out in a similar way. [drawing 25] [drawing 26] [drawing 27] Testing of Compounds • 1. The cytotoxicity of compounds described herein have been tested as described in J. Immunol. Methods, 65, 55-63, 1983 and the results are provided in Table 4 below, wherein P388 refers to in vitro test versus murine leukaemia P388, U373 refers to in vitro human glioblastoma/astrocytoma U373, HEY refers to in vitro human ovarian carcinoma HEY, MCF7 refers to in vitro human breast cancer MCF7. • 2.

[2] = system: human glioblastoma/astrocytoma U373; assay: in vitro cytotoxicity versus human glioblastoma/astrocytoma U373; type: cell-based; conditions: for IC50: U373 MG
Description: as §1

[3] = system: human ovarian carcinoma HEY; assay: in vitro cytotoxicity versus human ovarian carcinoma HEY; type: cell-based
Description: as §1

[4] = system: human breast cancer MCF7; assay: in vitro cytotoxicity versus human breast cancer MCF7; type: cell-based
Description: as §1

[5] = system: human mammary carcinoma MCF7 cells; assay: antimitotic activity, percentage of mitotic cells in chromosome spreads; type: cell-based; conditions: for IC50: Homo sapiens; for IC50 / antimitotic activity, in words: 20 h treatment
Description: • 3. Compounds described herein were comparatively tested for their antimitotic activity against human mammary carcinoma MCF7 cells.
MCF7 cells were grown as a monolayer in RPMI supplemented with 15% fetal calf serum and antibiotics at 37° C. in humidified 10% CO2. All compounds were dissolved in dimethyl sulfoxide except for vinblastine (a known drug) which was a 1 mg/ml solution in physiological saline. Exponentially growing MCF7 cells were treated with different drug concentrations for 20 h, prepared for chromosome spreads, and the percentage of mitotic cells determined by fluorescence microscopy. Hemiasterlin, Hemiasterlin A and modified compounds were very potent antimitotic agents, with IC50 values of 0.3 nM and 3 nM respectively.

[6] = system: MCF7 cells; assay: morphology of mitotic spindles by indirect immunofluorescence (β-tubulin antibody, bisbenzimide); type: cell-based, human
Text: The effect of Hemiasterlin and Hemiasterlin A on the morphology of their mitotic spindles was examined by indirect immunofluorescence using a monoclonal antibody to β-tubulin and the distribution of their chromosomes using the fluorescent DNA dye bisbenzimide.

[7] = system: P388 leukaemia cells; assay: in vivo P388 leukaemia model in mice
[8] = read-out: IC50 Values cell mitosis

Compound `CN[C@H](C(=O)N[C@H](C(=O)N(C)[C@H](/C=C(\C)C(=O)N[C@@H](CCCNC(=N)N)C(=O)O)C(C)C)C(C)(C)C)C(C)(C)c1c[nH]c2ccccc12` has an IC50 [1] of 7.3 ng/mL (≈ 10.9 nM), an IC50 [2] of 270 ng/mL (≈ 404 nM) and an IC50 [3] of 190 ng/mL (≈ 284 nM). It also gave an IC50 [4] of 6800 ng/mL (≈ 10200 nM).
For `CN[C@H](C(=O)N[C@H](C(=O)N(C)[C@H](/C=C(\C)C(=O)OC)C(C)C)C(C)(C)C)C(C)(C)c1cn(C)c2ccccc12`, the IC50 [4] was 5.4 ng/mL (≈ 9.99 nM) and the IC50 [5, 8] was 0.216 ng/mL.
Compound `CN[C@H](C(=O)N[C@H](C(=O)N(C)[C@H](CC(C)C(=O)O)C(C)C)C(C)(C)C)C(C)(C)c1cn(C)c2ccccc12` (stereo partly shown) has an IC50 [5, 8] of 1.06 ng/mL.
`CCOC(=O)/C(C)=C/[C@H](C(C)C)N(C)C(=O)[C@@H](NC(=O)[C@@H](NC)C(C)(C)c1cn(C)c2ccccc12)C(C)C` was tested, and the IC50 [4] was 100 ng/mL (≈ 185 nM).
`C=C1C[C@H](C)C(=O)N[C@@H](C)C(=O)N(C)[C@H](Cc2ccc(O)c(I)c2)C(=O)N[C@@H](C)C(=O)O[C@@H](C)C[C@@H](C)C1=O` [Compound 1, Geodiamolide G] was tested, and the “IC50 Values U373” value [2] was 7700 ng/mL (≈ 11700 nM) and the “IC50 Values HEY” value [3] was 8600 ng/mL (≈ 13100 nM).
`CN[C@H](C(=O)N[C@H](C(=O)N(C)[C@H](/C=C(\C)C(=O)O)C(C)C)C(C)(C)C)C(C)(C)c1c[nH]c2ccccc12` [Compound 2, Hemiasterlin A] showed an IC50 [1] of 0.00171 ng/mL (≈ 0.00334 nM), an IC50 [2] of 1.5 ng/mL (≈ 2.93 nM) and an IC50 [3] of 7.6 ng/mL (≈ 14.8 nM). For the same compound, the IC50 [4] was 1.54 ng/mL (≈ 3 nM), the “lowest concentration causing maximal mitotic arrest” value [5] was 10 nM and the “antimitotic activity, in words” value [5] was “more potent than Taxol, Vinblastine and Nocodazole”. For the same compound, the IC50 [5, 8] was 1.02 ng/mL, the IC50 ([5]; read-out: antimitotic IC50) was 3 nM and the mitotic spindle morphology ([6]; at 2 nM) was “no completely normal spindles were seen”. The effect on microtubules ([6]; at 10 nM) was “caused microtubule depolymerisation in mitotic cells”.
Work on `CN[C@H](C(=O)N[C@H](C(=O)N(C)[C@H](/C=C(\C)C(=O)O)C(C)C)C(C)C)C(C)(C)c1c[nH]c2ccccc12` [Compound 3, Hemiasterlin B] yielded an IC50 [1] of 7 ng/mL (≈ 14 nM), an IC50 [3] of 16 ng/mL (≈ 32.1 nM) and an IC50 [4] of 15 ng/mL (≈ 30.1 nM). It also gave an IC50 [5, 8] of 9.96 ng/mL.
`CN[C@H](C(=O)N[C@H](C(=O)N(C)[C@H](/C=C(\C)C(=O)O)C(C)C)C(C)(C)C)C(C)(C)c1cn(C)c2ccccc12` [Compound A, Hemiasterlin] showed an IC50 [1] of 0.0457 ng/mL (≈ 0.0868 nM), an IC50 [2] of 12 ng/mL (≈ 22.8 nM) and an IC50 [3] of 1.4 ng/mL (≈ 2.66 nM). The IC50 [4] was 0.158 ng/mL (≈ 0.3 nM), the “antimitotic activity, in words” value [5] was “more potent than Taxol, Vinblastine and Nocodazole” and the IC50 [5, 8] was 0.158 ng/mL. For the same compound, the IC50 ([5]; read-out: antimitotic IC50) was 0.3 nM, the “in vivo tests, result in words” value ([7]; in vivo tests per NIH Publication No. 84-2635) was “cytotoxic” and the long term survivors ([7]; mice injected with 1×10^6 P388 leukaemia cells, 5 daily doses of 0.45 μg) was “several long term survivors”. The “%TC” value ([7]; mice injected with 1×10^6 P388 leukaemia cells, 5 daily doses of 0.45 μg begun 24 hours after implantation) was 223%.
`COC(=O)Nc1nc2ccc(C(=O)c3cccs3)cc2[nH]1` [Nocodazole] was tested, and the mitotic spindle morphology ([6]; half-maximal concentrations) was “produced the same types of abnormal spindle as hemiasterlin A” and the effect on microtubules ([6]; high concentrations) was “microtubule depolymerisation in mitotic cells”.
`CC(=O)O[C@H]1C(=O)[C@@]2(C)[C@H]([C@H](OC(=O)c3ccccc3)[C@]3(O)C[C@H](OC(=O)[C@H](O)[C@@H](NC(=O)c4ccccc4)c4ccccc4)C(C)=C1C3(C)C)[C@]1(OC(C)=O)CO[C@@H]1C[C@@H]2O` [Taxol] was tested, and the mitotic spindle morphology ([6]; half-maximal concentrations) was “produced the same types of abnormal spindle as hemiasterlin A” and the effect on microtubules ([6]; high concentrations) was “causing bundling of cytoplasmic microtubules in interphase cells and very dense multiple asters in mitotic cells”.
For `CC[C@]1(O)C[C@@H]2CN(CCc3c([nH]c4ccccc34)[C@@](C(=O)OC)(c3cc4c(cc3OC)N(C)[C@H]3[C@@](O)(C(=O)OC)[C@H](OC(C)=O)[C@]5(CC)C=CCN6CC[C@]43[C@@H]65)C2)C1` [Vinblastine], the mitotic spindle morphology ([6]; half-maximal concentrations) was “produced the same types of abnormal spindle as hemiasterlin A” and the effect on microtubules ([6]; high concentrations) was “microtubule depolymerisation in mitotic cells”.
